Measurements reported in article PMC11259170, “Small-molecule probe for IBD risk variant GPR65 I231L alters cytokine signaling networks through positive allosteric modulation” (Science Advances, 2024).
Where two headings read alike, the source gives them in different places.

How the values were obtained:
hGPR65 = target: T1, hGPR65 (Homo sapiens, UniProt Q8IYL9); assay: cAMP detection in HeLa expression cell line, hGPR65; format: cell-based; conditions: for Emax: HeLa, relative to 100uM forskolin (100%) and DMSO (0%), read-out: hGPR Max Activity %
T1 construct: expressed in transfected cells; host or cells: HeLa (ATCC CCL-2), lentiviral transduction, pLX317
Method in brief: (§1)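 Compound was dispensed from a 10 mM DMSO stock, and puromycin-selected HeLa lines carrying lentiviral V5-tagged receptor were added at 1500 cells/well in pH 7.2 stimulation buffer. After 30 min stimulation at room temperature, cells were lysed and detection ran 1 h in the dark before cAMP TR-FRET reading.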

mGPR65 = target: T2, mGPR65 (Mus musculus, UniProt Q61038); assay: cAMP detection in HeLa expression cell line, mGPR65; format: cell-based; conditions: for Emax: HeLa, relative to 100uM forskolin (100%) and DMSO (0%), read-out: mGPR Max Activity %
T2 construct: expressed in transfected cells; host or cells: HeLa (ATCC CCL-2), lentiviral transduction, pLX317
Method in brief: as §1

hGPR65-SmBiT = target: T3, hGPR65-SmBiT (Homo sapiens, UniProt Q8IYL9); assay: Nano-BiT target engagement, LgBiT-mGs recruitment to hGPR65-SmBiT in Expi293F cells; format: cell-based
T3 construct: expressed in transfected cells; host or cells: Expi293F (Gibco), transient transfection
Protocol: (§2) Target engagement was measured in Expi293F (Gibco, 100044202) cells using the Nano-Glo Live Cell Assay System (Promega, N2011). Nano-BiT plasmids were cloned from GPR65-, GPR4-, and GPR68-Tango plasmids. GPR65-Tango (Addgene plasmid # 66370; http://n2t.net/addgene:66370; RRID:Addgene_66370), GPR4-Tango (Addgene plasmid # 66358; http://n2t.net/addgene:66358; RRID:Addgene_66358), and GPR68-Tango (Addgene plasmid # 66371; http://n2t.net/addgene:66371; RRID:Addgene_66371) were gifts from Bryan Roth. Expi293F cells were transfected 1 day before kinetics with 500 ng of each plasmid using ExpiFectamine 293 Transfection Kit (Gibco, A14525). After 24 hours, cells were collected, washed, and resuspended in room temperature 0.1% PBS-BSA, adjusted to pH 7.4 using 1 M NaOH. Cells were transferred to white opaque 96-well microplates (100 μl per well, PerkinElmer, 6005290), followed by addition of the Nano-Glo Live Cell Reagent (25 μl per well). Baseline luminescence was measured for 10 cycles (1 cycle = 90 s) before adding compounds. All luminescence measurements were made on BMG Labtech PHERAstar FSX. Data analysis was performed using GraphPad Prism.

mGPR65-SmBiT = target: T4, mGPR65-SmBiT (Mus musculus, UniProt Q61038); assay: Nano-BiT target engagement, LgBiT-mGs recruitment to mGPR65-SmBiT; format: cell-based; conditions: 10 μM
T4 construct: expressed in transfected cells; host or cells: Expi293F (Gibco), transient transfection
Protocol: as §2

[1] = system: murine macrophages and T cells; design: method as in PMID 22445881; conditions: murine macrophages and T cells ref 33; cited from earlier work
[2] = 1st hGPR column pair, NA = no activity
[3] = 2nd hGPR column pair, NA = no activity
[4] = 2nd mGPR column pair, NA = no activity

T3 sequence (Q8IYL9 whole entry): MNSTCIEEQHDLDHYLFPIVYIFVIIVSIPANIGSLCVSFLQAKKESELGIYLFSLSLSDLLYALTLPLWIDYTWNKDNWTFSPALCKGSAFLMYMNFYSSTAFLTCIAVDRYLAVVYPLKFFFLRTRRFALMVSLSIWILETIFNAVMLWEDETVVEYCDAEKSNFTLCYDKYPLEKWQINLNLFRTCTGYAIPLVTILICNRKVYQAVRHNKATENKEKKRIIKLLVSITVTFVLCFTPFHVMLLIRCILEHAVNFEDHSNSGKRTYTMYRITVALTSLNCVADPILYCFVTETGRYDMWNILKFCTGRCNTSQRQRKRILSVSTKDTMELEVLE
T1 sequence (Q8IYL9 whole entry): as above
T4 sequence (Q61038 whole entry): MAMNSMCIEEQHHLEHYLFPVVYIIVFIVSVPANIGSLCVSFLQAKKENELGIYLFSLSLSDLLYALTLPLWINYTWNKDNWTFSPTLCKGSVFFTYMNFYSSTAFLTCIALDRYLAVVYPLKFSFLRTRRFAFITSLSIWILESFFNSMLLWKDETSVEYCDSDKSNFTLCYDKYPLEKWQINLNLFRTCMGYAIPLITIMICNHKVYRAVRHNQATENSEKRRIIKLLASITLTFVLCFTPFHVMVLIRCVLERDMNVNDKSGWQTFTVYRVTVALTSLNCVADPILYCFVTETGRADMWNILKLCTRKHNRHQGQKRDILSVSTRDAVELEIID
T2 sequence (Q61038 whole entry): as above

Compound: Cc1ccc(NC(=O)c2cnn3c(O)cc(-c4ccc(COC(C)C)cc4)nc23)nc1 [BRD5075, O=C(NC1=NC=C(C)C=C1)C2=C3N(N=C2)C(O)=CC(C4=CC=C(COC(C)C)C=C4)=N3]
- mode of action from pH-dependent cAMP production (hGPR65; 0 to 50 μM, pH range of 6.6 to 7.6): PAMs
- activity for hGPR65 among prioritized molecules (hGPR65; 1.56 μM, pH 7.2): highest activity
- Emax (hGPR65; [2]): 80.3%
- Emax (hGPR65; [3]): 78.6%
- EC50 (hGPR65; hGPR EC50 (uM), NA = no activity): 0.377 µM
- EC50 (hGPR65; hGPR EC50 (uM), pH 7.2, 30 min): 1.2 µM
- EC50 (hGPR65; hGPR EC50, NA = no activity): 1.1 µM
- EC50 (hGPR65; hGPR EC50, pH 7.2, 30 min): 0.699 µM
- cAMP activity, hGPR65 (hGPR65; pH 7.2): at least 40%
- activity for mGPR65 among prioritized molecules (mGPR65; 1.56 μM, pH 7.2): highest activity
- cAMP response against mGPR65 among prioritized compounds (mGPR65; HeLa cells): highest cAMP response
- Emax (mGPR65; [4]): 69.6%
- Emax (mGPR65; NA = no activity): 70.8%
- EC50 (mGPR65; mGPR EC50 (uM), 2nd mGPR column pair, NA = no activity): 0.952 µM
- EC50 (mGPR65; mGPR EC50 (uM), first pair of columns, pH 7.2, 30 min): 1.04 µM
- EC50 (mGPR65; mGPR EC50 (uM), second pair of columns, pH 7.2, 30 min): 0.997 µM
- EC50 (mGPR65; mGPR EC50 (uM), NA = no activity): 0.892 µM
- cAMP activity, mGPR65 (mGPR65; pH 7.2): at least 40%
- effect of concentration on mGs recruitment (hGPR65-SmBiT; 0-50 μM): dose-dependent effect
- mGs recruitment / engagement of hGPR65 (hGPR65-SmBiT; 10 μM): showed engagement
- activity after HCl versus water, hGPR65 (hGPR65-SmBiT; 10 μM, HCl or H2O at cycle 10): showed activity when preceded by the addition of HCl but not water
- mGs recruitment / engagement of mGPR65 (mGPR65-SmBiT): showed engagement
- activity after HCl versus water, mGPR65 (mGPR65-SmBiT; HCl or H2O at cycle 10): showed activity when preceded by the addition of HCl but not water

Compound: CN1N=C(SCc2ccc(Cl)cc2Cl)Sc2c1cnn(C)c2=O [BTB09089, reference compound]
- EC50 (hGPR65; 1st hGPR column pair, NA = no activity, read-out: hGPR EC50): 6.35 µM
- EC50 (hGPR65; 2nd hGPR column pair, NA = no activity, read-out: hGPR EC50): 1.37 µM
- Emax (hGPR65; [2]): 53.5%
- Emax (hGPR65; [3]): 31.1%
- EC50 (mGPR65; 2nd mGPR column pair, NA = no activity, read-out: mGPR EC50): 0.458 µM
- Emax (mGPR65; [4]): 76.4%
- Emax (mGPR65; NA = no activity): 82.8%
- mGs recruitment / engagement of hGPR65 (hGPR65-SmBiT; 10 μM): limited activity toward hGPR65
- mGs recruitment / engagement of mGPR65 (mGPR65-SmBiT): increases in luminescence independent of pH changes
- cAMP production through the Gαs-coupled pathway [1]: increased cAMP production
